Measured values published in a compilation of properties of binary mixtures (doi:10.1016/j.molliq.2020.112481).

Test: xn = mol fraction of the nth substance listed
Settings: 100 kPa

OCCO + CCCC[n+]1ccn(C)c1.O=S(=O)([O-])C(F)(F)F
x2 = 0
Settings | speed of sound [m/s] | viscosity [mPa·s]
298.15 K | 1655 | 16.39
308.15 K | 1631.5 | 11.16
313.15 K | 1619.7 | 9.34
318.15 K | 1607.9 | 7.91
323.15 K | 1596.1 | 6.75

CCCC[n+]1ccn(C)c1.O=S(=O)([O-])C(F)(F)F + OCCO
Settings | speed of sound [m/s] | viscosity [mPa·s]
298.15 K, x1 = 0.1936 | 1517.5 | 17.41
298.15 K, x1 = 0.2985 | 1478.8 | 20.69
298.15 K, x1 = 0.3912 | 1456.1 | 23.59
298.15 K, x1 = 0.4999 | 1437.2 | 26.6
298.15 K, x1 = 0.6055 | 1423.5 | 29.8
298.15 K, x1 = 0.7966 | 1410.5 | 42
298.15 K, x1 = 0.9035 | 1404.8 | 57.9
298.15 K, x1 = 1 | 1393.2 | 82.4
303.15 K, x1 = 0.1936 | 1505.9 | 14.07
303.15 K, x1 = 0.2985 | 1467.3 | 16.81
303.15 K, x1 = 0.3912 | 1444.6 | 19.28
303.15 K, x1 = 0.6055 | 1412.2 | 24.5
303.15 K, x1 = 0.7966 | 1399.2 | 34.3
303.15 K, x1 = 0.9035 | 1393.6 | 47
303.15 K, x1 = 1 | 1382.8 | 66.7
308.15 K, x1 = 0.0926 | 1551.3 | 10.51
308.15 K, x1 = 0.1936 | 1494.4 | 11.7
308.15 K, x1 = 0.3912 | 1433.2 | 15.95
308.15 K, x1 = 0.6055 | 1400.9 | 20.86
308.15 K, x1 = 0.9035 | 1382.5 | 38.6
308.15 K, x1 = 1 | 1371.7 | 52.9
313.15 K, x1 = 0.0926 | 1539.6 | 8.82
313.15 K, x1 = 0.1936 | 1482.8 | 9.82
313.15 K, x1 = 0.3912 | 1421.9 | 13.48
313.15 K, x1 = 0.6055 | 1389.8 | 17.79
313.15 K, x1 = 0.7966 | 1376.9 | 24.6
313.15 K, x1 = 0.9035 | 1371.5 | 32.3
313.15 K, x1 = 1 | 1360.7 | 43.7
318.15 K, x1 = 0.1936 | 1471.4 | 8.3
318.15 K, x1 = 0.2985 | 1433.2 | 9.91
318.15 K, x1 = 0.3912 | 1410.7 | 11.51
318.15 K, x1 = 0.6055 | 1378.7 | 15.37
318.15 K, x1 = 0.6922 | 1371.2 | 17.42
318.15 K, x1 = 0.7966 | 1365.9 | 21.09
318.15 K, x1 = 0.9035 | 1360.5 | 27.3
318.15 K, x1 = 1 | 1349.9 | 36.3
323.15 K, x1 = 0.0926 | 1516.4 | 6.2
323.15 K, x1 = 0.2985 | 1421.9 | 8.4
323.15 K, x1 = 0.4999 | 1381 | 11.65
323.15 K, x1 = 0.6055 | 1367.7 | 13.42
323.15 K, x1 = 0.6922 | 1360.3 | 15.17
323.15 K, x1 = 0.9035 | 1349.7 | 23.24
323.15 K, x1 = 1 | 1338.8 | 30.6
